Read-outs that look alike come from different tables or passages of the source. Bridge positions count the residues as written; N and C are the ends. Ends that are not written are not given here.
Legend:
[1] = system: human saliva α-amylases (HSA); conditions: cited from earlier work
Text: (§1) It covers all age groups of the population, and recently it has spread epidemiologically among children and adolescents. The blood glucose levels of diabetic patients reaches abnormally high values, which leads to serious damage to many body systems, especially nerves and blood vessels, causing heart and kidney diseases, blindness, and even the amputation of limbs. The preferred way to maintain ...

[2] = molecular target: T1, porcine pancreatic α-amylase (PPA) (Sus scrofa, UniProt P00690); conditions: cited from earlier work
T1 construct: purchased Sigma Aldrich A4268
T1 sequence (P00690 16-511): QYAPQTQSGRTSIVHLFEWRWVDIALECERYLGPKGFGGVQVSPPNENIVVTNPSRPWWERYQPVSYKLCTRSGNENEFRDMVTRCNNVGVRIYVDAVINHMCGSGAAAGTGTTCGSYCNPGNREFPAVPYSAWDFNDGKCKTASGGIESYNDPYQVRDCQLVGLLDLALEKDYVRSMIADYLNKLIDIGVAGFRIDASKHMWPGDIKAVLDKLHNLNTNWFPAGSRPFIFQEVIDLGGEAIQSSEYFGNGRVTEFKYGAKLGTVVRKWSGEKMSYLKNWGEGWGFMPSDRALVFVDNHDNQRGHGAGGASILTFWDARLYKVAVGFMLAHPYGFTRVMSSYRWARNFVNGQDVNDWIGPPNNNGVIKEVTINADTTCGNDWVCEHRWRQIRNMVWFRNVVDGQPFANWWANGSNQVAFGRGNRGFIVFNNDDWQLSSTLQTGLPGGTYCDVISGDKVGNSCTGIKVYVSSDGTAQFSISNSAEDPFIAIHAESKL
Text: as §1, with “[…] Recently, as a result of the proteomic analysis of the sea anemone H. magni” for “The preferred way to maintain”

[3] = molecular target: human pancreatic α-amylase (HPA); conditions: Table 5, ref [11]; cited from earlier work
Text: Recently, as a result of the proteomic analysis of the sea anemone H. magni ...

[4] = molecular target: human salivary α-amylase (HSA) (Homo sapiens, UniProt P0DUB6); assay: Determination of Ki against human saliva α-amylase (Morrison); type: biochemical; conditions: pH 7, Table 5 summary, own value; 37 °C, pH 7.0, CNPG3, Morrison fit; read-out: Ki, M (HSA) (converted)
Sequence of human salivary α-amylase (HSA) (P0DUB6 16-511): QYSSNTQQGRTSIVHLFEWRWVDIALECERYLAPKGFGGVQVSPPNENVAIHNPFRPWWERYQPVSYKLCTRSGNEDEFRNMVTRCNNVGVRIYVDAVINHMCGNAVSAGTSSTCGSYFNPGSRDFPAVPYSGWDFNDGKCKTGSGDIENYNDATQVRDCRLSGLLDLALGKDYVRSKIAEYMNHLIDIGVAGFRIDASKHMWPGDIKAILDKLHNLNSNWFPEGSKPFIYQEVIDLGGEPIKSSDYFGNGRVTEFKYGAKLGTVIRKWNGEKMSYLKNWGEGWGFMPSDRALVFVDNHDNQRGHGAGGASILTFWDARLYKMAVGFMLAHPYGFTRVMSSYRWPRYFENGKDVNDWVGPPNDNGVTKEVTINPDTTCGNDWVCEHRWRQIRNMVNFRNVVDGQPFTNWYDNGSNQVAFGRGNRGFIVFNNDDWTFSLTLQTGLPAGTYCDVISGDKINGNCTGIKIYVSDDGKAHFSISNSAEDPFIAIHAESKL
Method: For a quantitative assessment of tight-binding inhibitor potency, Morrison’s method was applied. This method uses the Morrison quadratic equation (Equation (1)) for fitting inhibitor-response data and determining Ki app as a nonlinear regression parameter. (1) υ/υo=1−([E]+[I]+Kiapp)−([E]+[I]+Kiapp)^2−4[E][I]/2[E]o
Kinetic assays were carried out at 37 °C in 50 mM sodium phosphate and 100 mM sodium chloride (pH 7.0). 2-Chloro-4-nitrophenyl-α-maltotrioside (CNPG3) (Sigma Aldrich, St. Louis, MO, USA) was used as the substrate and the optical absorption of the 2-chloro-4-nitrophenol was measured at 405 nm. Reactions were run with final [CNPG3] = 1 mM ([S]/KM = 1.41, KM = 0.71 mM), nominal [E] = 20 nM for PPA, [CNPG3] = 3.3 mM ([S]/KM = 0.97, KM = 3.4 mM), and nominal [E] = 100 nM for HSA to provide sufficient analytical signal. Inhibitor dilution schemes were optimized considering recommendations in [34].
The enzyme was pre-incubated with the inhibitor for 10 minutes before the addition of substrate which launched the reaction. Reactions were monitored on an xMark microplate spectrophotometer (BioRad, USA) in the kinetic mode for 30 min. The initial linear steady state region provided initial rate values for each inhibitor concentration (υ), along with uninhibited rate values (υo). Measurements were run in triplicate. […]

[5] = system: 18 subtypes of voltage-gated potassium and voltage-gated sodium channels; assay: Electrophysiological screening, overall; type: cell-based; conditions: 10 µM; Xenopus laevis oocytes; listed as magnificamide
Text: For the expression of Nav channels (mammalian rNav1.2, rNav1.4, hNav1.5, mNav1.6 and hNav1.8 channels; the insect channel BgNav1 from Blattella germanica; and the auxiliary subunits rβ1, hβ1, and TipE) and Kv channels (mammalian rKv1.1, rKv1.2, hKv1.3, rKv1.4, rKv1.5, rKv1.6, rKv2.1, hKv3.1, rKv4.2, hKv10.1, and hERG; and Drosophila Shaker’s IR) in Xenopus laevis oocytes; the linearized plasmids were transcribed using the T7 or SP6 mMESSAGE-mMACHINE transcription kit (Ambion, Carlsbad, CA, USA). The harvesting of stage V–VI oocytes from anesthetized female Xenopus laevis frog was previously described. Oocytes were injected with 50 nL of cRNA at a concentration of 1 ng/nL using a microinjector (Drummond Scientific, Broomall, PA, USA). The oocytes were incubated in a solution containing 96-mM NaCl, 2-mM KCl, 1.8-mM CaCl2, 2-mM MgCl2, and 5-mM HEPES (pH 7.4), supplemented with 50 mg/L gentamycin sulfate.
Two-electrode voltage-clamp recordings were performed at room temperature (18–22 °C) using a Geneclamp 500 amplifier (Molecular Devices, Downingtown, PA, USA) controlled by a pClamp data acquisition system (Axon Instruments, Union City, CA, USA). Whole cell currents from oocytes were recorded 1–4 days after injection. The bath solution’s composition was 96-mM NaCl, 2-mM KCl, 1.8-mM CaCl2, 2-mM MgCl2, and 5-mM HEPES (pH 7.4). Toxins were applied directly to the bath. Resistances of both electrodes were kept between 0.8 and 1.5 MΩ. The elicited currents were sampled at 20 kHz (Nav) or 2 kHz (Kv), filtered at 2 kHz (Nav) or 0.5 kHz (Kv) using a four-pole low-pass Bessel filter. Leak subtraction was performed using a -P/4 protocol. […] For the electrophysiological analysis, a number of protocols were applied from a holding potential of −90 mV with a start-to-start interval of 0.2 Hz. Kv1.1–Kv1.6 and Shaker currents were evoked by 250-ms depolarizations to 0 mV followed by a 250 ms pulse to −50 mV from a holding potential of −90 mV. […] All data were analyzed using pClamp Clampfit 10.0 (Molecular Devices, Downingtown, PA, USA) and Origin 7.5 software (Originlab, Northampton, MA, USA).

[6] = system: fungi, Gram-positive or Gram-negative bacteria; assay: Antimicrobial screening, overall; type: cell-based; conditions: 1, 5, 10, 20 µM; listed as magnificamide
Method: The antimicrobial activity of r-magnificamide was tested against Gram-positive (Staphylococcus aureus ATCC 21027 and Bacillus subtilis ATCC6633), Gram-negative bacteria (Escherichia coli VKPM B-7935 and Pseudomonas aeruginosa ATCC 27853), and the fungus Candida albicans KMM 455 by the agar dilution method. Microbial strains were taken from the American Type Culture Collection (ATCC), Russian National Collection of Industrial Microorganisms (VKPM), and Collection of Marine Microorganisms (KMM) (Pacific Institute of Bioorganic Chemistry FEB RAS). To obtain a microbial lawn, 0.1 mL of a cell suspension (0.5 × 10^8 cells/mL) was uniformly distributed on agar surface in Petri dishes (15 g/L tryptic soy broth, 2 g/L bacto yeast extract, 1 g/L glucose, and 20 g/L agar for bacteria; for fungi 10 g/L of glucose was added). Wells with a diameter of 6 mm were punched into the agar and filled with 100 µL of the peptide solution at concentrations 1, 5, 10, and 20 µM. The plates were then incubated for 18 h at 37 °C for bacteria, and at 30 °C for the fungus. Minimum inhibitory concentration was determined by measuring the clear zone of inhibition around each well. All assays were performed independently three times.

[7] = molecular target: porcine pancreatic α-amylase (porcine) (UniProt P00690); assay: enzyme inhibition kinetics (Morrison tight-binding fit); 37 °C, 50 mM sodium phosphate, 100 mM sodium chloride, pH 7.0; substrate CNPG3 (1 mM with nominal 20 nM PPA; 3.3 mM with nominal 100 nM HSA); enzyme pre-incubated with inhibitor 10 min; Ki from Ki app assuming a competitive mode of inhibition; triplicate
[8] = due to β-sandwich fold; ref [17]; cited from earlier work
Text: The medicines based on proteins and peptides are poorly represented in the pharmacological market, but attract the interest of specialists due to their high selectivity and effectiveness, combined with relative safety and good tolerability. A large number of proteinaceous α-amylase inhibitors have been isolated from plants, but they are highly specific and interacted with plant α-amylases to control the breakdown of stored starch or with insect α-amylases for defense. Several very effective proteinaceous inhibitors of mammalian, but not plant or microbial α-amylases were found in bacter ...

Q: With `C[C@H]1O[C@H](O[C@H]2[C@H](O)[C@@H](O)[C@@H](O[C@H]3[C@H](O)[C@@H](O)C(O)O[C@@H]3CO)O[C@@H]2CO)[C@H](O)[C@@H](O)[C@@H]1N[C@H]1C=C(CO)[C@@H](O)[C@H](O)[C@H]1O` (some centres unmarked) [Acarbose] as the molecule, how does the Ki ([1]; Table 5, ref [9], read-out: Ki, M (HSA) (converted)) read?
A: 1300 nM

Q: What about the Ki ([1]; ref [9], read-out: Ki against HSA) of the same molecule?
A: 1260 nM

Q: For “Helianthamide: α-amylase inhibitor of the β-defensins family from Stichodactyla helianthus (44 aa, 4716 Da); PDB ID 4XON (ESGNSCYIYHGVSGICKASCAEDEKAMAGMGVCEGHLCCYKTPW; three disulfide bridges; the text prints the PDB ID as 4XON, read as 4X0N (complex with porcine pancreatic alpha-amylase)) [reference compound]”, which Ki ([2]; Table 5, ref [18]) is on record?
A: 0.1 nM

Q: Which Ki [3] does the source give for Montbretin A here?
A: 8.1 nM

Q: Which Ki [4] does the source give for “SEGTSCYIYHGVYGICKAKCAEDMKAMAGMGVCEGDLCCYKTPW (disulfide 6-38, 16-33, 20-39) [Magnificamide]” here?
A: 7.7 nM

Q: What about the “Ion channel modulating activity, overall” value [5] of the same molecule?
A: found no activity

Q: And the “Antimicrobial activity, overall” value [6]?
A: No antimicrobial activity against Gram-positive, Gram-negative bacteria, or fungi was observed

Q: For recombinant magnificamide (peptide), which Ki [7] is on record?
A: 0.17 nM

B1: Tendamistat (HOE-467A): α-amylase inhibitor from Streptomyces tendae 4158, Mr 7958 Da (protein, UniProt P01092 31-104, looked up)
Alpha-amylase inhibitor …: DTTVSEPAPSCVTLYQSWRYSQADNGCAQTVTVKVVYEDDTEGLCYAVAPGQITTVGDGYIGSHGHARYLARCL
Q: What does the source list for B1?
A: Ki ([2]; Table 5, ref [13]): 0.009 nM; immunogenicity [8]: high immunogenicity

B2: Parvulustat (Z-2685): α-amylase inhibitor from Streptomyces parvullus FH-1641, Mr 8129 Da (protein)
chain: ATGSPVAECVEYFQSWRYTDVHNGCADAVSVTVEYTHGQWAPCRVIEPGGWATFAGYGTDGNYVTGLHTCDPATPSGV
modifications: two disulfide bridges; expected 78 aa, 8129 Da
Q: Which Ki ([2]; Table 5, ref [16]) does the source give for B2 here?
A: 0.028 nM

Source: paper PMC6835510, “Magnificamide, a β-Defensin-Like Peptide from the Mucus of the Sea Anemone Heteractis magnifica, Is a Strong Inhibitor of Mammalian α-Amylases” (Marine Drugs, 2019)
